How the values were obtained:
pigweed = test: Test C pre-/postemergence herbicide test; type: in vivo, Amaranthus retroflexus; conditions: for Plant response rating, Pigweed: scale 0 to 100
Outline: (§1)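 Pre/post spray; non-phytotoxic solvent + surfactant. Post-timing 1–4 leaves, 2–18 cm. Read-out: visual % control vs untreated, day 12–14, greenhouse.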

kochia = test: Test C pre-/postemergence herbicide test; type: in vivo, Kochia scoparia
Outline: as §1

yellow nutsedge = test: Test C pre-/postemergence herbicide test; type: in vivo, Cyperus esculentus; conditions: for Plant response rating, Nutsedge, Yellow: scale 0 to 100
Outline: as §1

velvetleaf = test: Test A pre-/postemergence herbicide test; type: in vivo, Abutilon theophrasti; conditions: for Plant response rating, Velvetleaf: Postemergence; for Velvetleaf plant response rating: Preemergence
Outline: (§2)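 Greenhouse injury scoring (0–100, complete control = 100) at approximately ten days follows simultaneous pre- and postemergence application. Soil received a directed spray after seeding; seedlings of 2–10 cm at the one- to two-leaf stage were sprayed to runoff.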

morningglory = test: Test C pre-/postemergence herbicide test; type: in vivo, Ipomoea coccinea; set-up: key to Plant response rating, Morningglory: 0 = no effect, 100 = complete control; conditions: for Plant response rating, Morningglory: scale 0 to 100
Outline: as §1

soybean = test: Test C pre-/postemergence herbicide test; type: in vivo, Glycine max; conditions: for Plant response rating, Soybean: scale 0 to 100
Outline: as §1

lambsquarters = test: Test C pre-/postemergence herbicide test; type: in vivo, Chenopodium album
Outline: as §1

corn = test: Test C pre-/postemergence herbicide test; type: in vivo, Zea mays
Outline: as §1

Surinam grass = test: Test C pre-/postemergence herbicide test; type: in vivo, Urochloa decumbens; conditions: for Plant response rating, Surinam Grass: scale 0 to 100
Outline: as §1

giant foxtail = test: Test A pre-/postemergence herbicide test; type: in vivo, Setaria faberi; conditions: for Plant response rating, Foxtail, Giant: Postemergence; for Foxtail, Giant plant response rating: Preemergence
Outline: as §2

goosegrass = test: Test C pre-/postemergence herbicide test; type: in vivo, Eleusine indica
Outline: as §1

woolly cupgrass = test: Test C pre-/postemergence herbicide test; type: in vivo, Eriochloa villosa
Outline: as §1

[1] = 31 g ai/ha, preemergence, scale 0 to 100
[2] = 125 g ai/ha, scale 0-100, preemergence
[3] = Postemergence, 125 g ai/ha, scale 0 to 100, 0 no effect, 100 complete control
[4] = postemergence, 31 g ai/ha, scale 0 to 100
[5] = postemergence, 62 g ai/ha, scale 0 to 100
[6] = 500 g ai/ha, 0 to 100 scale, 0 no effect, 100 complete control
[7] = 2000 g ai/ha, 0 to 100 scale, 0 no effect, 100 complete control
[8] = 500 g ai/ha, visual rating, 0 to 100 scale (0 no effect, 100 complete control)

C=Cn1nc(C(C)(C)C)cc1C(=O)Nc1cccc(C(=O)NCC)c1 [Compound 33]
Plant response rating, Pigweed (pigweed; 31 g ai/ha, preemergence): 30 | Plant response rating (0 = no effect, 100 = complete control), Pigweed (pigweed; 62 g ai/ha, preemergence): 50 | Plant response rating, Pigweed (pigweed; postemergence, 125 g ai/ha): 100 | Plant response rating, Pigweed (pigweed; postemergence, 31 g ai/ha): 90 | Plant response rating, Pigweed (pigweed; postemergence, 62 g ai/ha): 100 | Plant response rating, Kochia (kochia; [1]): 80 | Plant response rating (0 = no effect, 100 = complete control), Kochia (kochia; 62 g ai/ha, preemergence): 100 | Plant response rating, Kochia (kochia; [2]): 100 | Plant response rating, Kochia (kochia; [3]): 90 | Plant response rating, Kochia (kochia; [4]): 60 | Plant response rating, Kochia (kochia; [5]): 90 | Plant response rating, Nutsedge, Yellow (yellow nutsedge; 16 g ai/ha, last section of Table C, preemergence): 0 | Plant response rating, Nutsedge, Yellow (yellow nutsedge; 31 g ai/ha, preemergence): 0 | Plant response rating (0 = no effect, 100 = complete control), Nutsedge, Yellow (yellow nutsedge; 62 g ai/ha, preemergence): 0 | Plant response rating, Nutsedge, Yellow (yellow nutsedge; postemergence, 125 g ai/ha): 10 | Plant response rating, Nutsedge, Yellow (yellow nutsedge; postemergence, 31 g ai/ha): 0 | Plant response rating, Nutsedge, Yellow (yellow nutsedge; postemergence, 62 g ai/ha): 0 | Plant response rating, Velvetleaf (velvetleaf; [6]): 30 | Plant response rating, Velvetleaf (velvetleaf; [7]): 40 | Velvetleaf plant response rating (velvetleaf; [8]): 20 | Velvetleaf plant response rating (velvetleaf; [7]): 80 | Plant response rating, Morningglory (morningglory; 31 g ai/ha, preemergence): 0 | Plant response rating (0 = no effect, 100 = complete control), Morningglory (morningglory; 62 g ai/ha, preemergence): 0 | Plant response rating, Morningglory (morningglory; postemergence, 125 g ai/ha): 30 | Plant response rating, Morningglory (morningglory; postemergence, 31 g ai/ha): 20 | Plant response rating, Morningglory (morningglory; postemergence, 62 g ai/ha): 20 | Plant response rating, Soybean (soybean; 31 g ai/ha, preemergence): 0 | Plant response rating (0 = no effect, 100 = complete control), Soybean (soybean; 62 g ai/ha, preemergence): 0 | Plant response rating, Soybean (soybean; postemergence, 125 g ai/ha): 90 | Plant response rating, Soybean (soybean; postemergence, 31 g ai/ha): 80 | Plant response rating, Soybean (soybean; postemergence, 62 g ai/ha): 80 | Plant response rating, Lambsquarters (lambsquarters; [1]): 80 | Plant response rating (0 = no effect, 100 = complete control), Lambsquarters (lambsquarters; 62 g ai/ha, preemergence): 100 | Plant response rating, Lambsquarters (lambsquarters; [2]): 100 | Plant response rating, Lambsquarters (lambsquarters; postemergence, 125 g ai/ha, scale 0 to 100): 90 | Plant response rating, Lambsquarters (lambsquarters; [4]): 90 | Plant response rating, Lambsquarters (lambsquarters; [5]): 90 | Plant response rating, Corn (corn; [1]): 0 | Plant response rating (0 = no effect, 100 = complete control), Corn (corn; 62 g ai/ha, preemergence): 0 | Plant response rating, Corn (corn; [2]): 0 | Plant response rating, Corn (corn; [3]): 40 | Plant response rating, Corn (corn; [4]): 40 | Plant response rating, Corn (corn; [5]): 40 | Plant response rating, Surinam Grass (Surinam grass; 31 g ai/ha, preemergence): 20 | Plant response rating (0 = no effect, 100 = complete control), Surinam Grass (Surinam grass; 62 g ai/ha, preemergence): 20 | Plant response rating, Surinam Grass (Surinam grass; postemergence, 125 g ai/ha): 50 | Plant response rating, Surinam Grass (Surinam grass; postemergence, 31 g ai/ha): 50 | Plant response rating, Surinam Grass (Surinam grass; postemergence, 62 g ai/ha): 50 | Plant response rating, Foxtail, Giant (giant foxtail; [6]): 70 | Plant response rating, Foxtail, Giant (giant foxtail; [7]): 85 | Foxtail, Giant plant response rating (giant foxtail; [8]): 80 | Foxtail, Giant plant response rating (giant foxtail; [7]): 95 | Plant response rating, Goosegrass (goosegrass; [1]): 20 | Plant response rating (0 = no effect, 100 = complete control), Goosegrass (goosegrass; 62 g ai/ha, preemergence): 60 | Plant response rating, Goosegrass (goosegrass; [2]): 90 | Plant response rating, Goosegrass (goosegrass; [3]): 40 | Plant response rating, Goosegrass (goosegrass; [4]): 40 | Plant response rating, Goosegrass (goosegrass; [5]): 40 | Plant response rating, Cupgrass, Woolly (woolly cupgrass; [1]): 20 | Plant response rating (0 = no effect, 100 = complete control), Cupgrass, Woolly (woolly cupgrass; 62 g ai/ha, preemergence): 20 | Plant response rating, Cupgrass, Woolly (woolly cupgrass; [2]): 50 | Plant response rating, Cupgrass, Woolly (woolly cupgrass; [3]): 60 | Plant response rating, Cupgrass, Woolly (woolly cupgrass; [4]): 50 | Plant response rating, Cupgrass, Woolly (woolly cupgrass; [5]): 60
